# Test results as given in publication PMC12005229, “Final results from the phase Ia/Ib study of the novel bromodomain and extra-terminal domain inhibitor, BI 894999, in patients with advanced solid tumors or diffuse large B-cell lymphoma” (ESMO Open, 2025).
# “And” between values parts separate entries of the source, which are not always exact repeats. Equal entries are not always repeated. “Also recorded” adds a separate entry of the source.
# Test system: patients with advanced solid tumors (SCLC, CRC, mCRPC, NUT carcinoma)
# Test: phase Ib expansion: DLTs, adverse events, exposure
# Details: for DLT / DLT grade / DLT outcome / DLT duration: individual patient events; for patients with DLTs: phase Ib schedule B
# [1] = phase Ib CRC, schedule B 2.5 mg
# [2] = phase Ib NUT carcinoma, schedule B 2.5 mg
# [3] = phase Ib NUT carcinoma, schedule C 6.0/3.0 mg
# [4] = phase Ib SCLC, schedule B 2.5 mg
# [5] = phase Ib mCRPC, schedule B 2.5 mg
# [6] = phase Ib, NUT carcinoma total n = 42
# Description: The primary endpoint for the phase Ib expansion was the number of patients who experienced DLTs during the study treatment period.
# For fatigue at baseline, there had to be an increase of two or more grades.
structure (smiles),measurement,setting,value
CNc1nc(-c2nc3ccc(N4CCN(C)CC4)cc3n2Cc2ccccc2)cn2c(C)nnc12 [BI 894999],most frequent DLT,phase Ia DLBCL extension and phase Ib,grade 4 thrombocytopenia
same,discontinuation because of DLT,phase Ib,3.8%
same,discontinuation because of other AEs,phase Ib,10.1%
same,discontinuation because of progressive disease,phase Ib,78.5%
same,dose continuations due to AEs,phase Ib,13.9%
same,dose reductions due to AEs,phase Ib,16.5%
same,median time to first dose reduction,phase Ib,35.5 days
same,patients who died because of AEs,phase Ib,8.9%
same,patients who required a dose reduction,phase Ib,20.3%
same,patients with AEs of any grade,phase Ib,100%
same,patients with treatment-related AEs,phase Ib,83.5%
same,thrombocytopenia leading to dose discontinuation,phase Ib,2.5%
same,DLT,[1],Dermatitis acneiform; also recorded: Thrombocytopenia
same,DLT grade,[1],3 and 4
same,DLT outcome,[1],Not recovered
same,DLT,[2],Decreased platelet count
same,DLT duration,[2],6 days
same,DLT grade,[2],4
same,DLT outcome,[2],Not recovered
same,DLT,[3],Pleural effusion; also recorded: Fatigue; also recorded: Diarrhea; also recorded: Decreased platelet count
same,DLT duration,[3],3 days and 16 days and 36 days
same,DLT grade,[3],3 and 4
same,DLT outcome,[3],Recovered; also recorded: Not recovered
same,DLT,[4],Laryngeal inflammation; also recorded: Thrombocytopenia; also recorded: Decreased appetite; also recorded: Fatigue; also recorded: Troponin T increased
same,DLT duration,[4],4 days and 9 days and 11 days and 6 days
same,DLT grade,[4],3 and 4
same,DLT outcome,[4],Not recovered; also recorded: Recovered
same,DLT,[5],Thrombocytopenia; also recorded: Decreased platelet count; also recorded: Troponin T increased; also recorded: Stomatitis; also recorded: Nausea; also recorded: Decreased appetite; also recorded: Hypophosphatemia
same,DLT duration,[5],40 days and 4 days and 3 days and 8 days and 12 days and 22 days
same,DLT grade,[5],4 and 3
same,DLT outcome,[5],Not recovered; also recorded: Recovered
same,patients with DLTs,CRC,2 n
same,patients with DLTs,NUT carcinoma,2 n
same,patients with DLTs,SCLC,3 n
same,patients with DLTs,mCRPC,7 n
same,"ALT increase, treatment-related AE, any grade","phase Ib, CRC n = 14",0 n (%)
same,"ALT increase, treatment-related AE, grade ≥3","phase Ib, CRC n = 14",0 n (%)
same,"Anemia, treatment-related AE, any grade","phase Ib, CRC n = 14",3 (21.4) n (%)
same,"Anemia, treatment-related AE, grade ≥3","phase Ib, CRC n = 14",2 (14.3) n (%)
same,"Decreased appetite, treatment-related AE, any grade","phase Ib, CRC n = 14",5 (35.7) n (%)
same,"Decreased appetite, treatment-related AE, grade ≥3","phase Ib, CRC n = 14",0 n (%)
same,"Decreased platelet count, treatment-related AE, any grade","phase Ib, CRC n = 14",1 (7.1) n (%)
same,"Decreased platelet count, treatment-related AE, grade ≥3","phase Ib, CRC n = 14",1 (7.1) n (%)
same,"Diarrhea, treatment-related AE, any grade","phase Ib, CRC n = 14",6 (42.9) n (%)
same,"Diarrhea, treatment-related AE, grade ≥3","phase Ib, CRC n = 14",2 (14.3) n (%)
same,"Dysgeusia, treatment-related AE, any grade","phase Ib, CRC n = 14",3 (21.4) n (%)
same,"Dysgeusia, treatment-related AE, grade ≥3","phase Ib, CRC n = 14",0 n (%)
same,"Epistaxis, treatment-related AE, any grade","phase Ib, CRC n = 14",1 (7.1) n (%)
same,"Epistaxis, treatment-related AE, grade ≥3","phase Ib, CRC n = 14",0 n (%)
same,"Fatigue, treatment-related AE, any grade","phase Ib, CRC n = 14",4 (28.6) n (%)
same,"Fatigue, treatment-related AE, grade ≥3","phase Ib, CRC n = 14",0 n (%)
same,"Nausea, treatment-related AE, any grade","phase Ib, CRC n = 14",3 (21.4) n (%)
same,"Nausea, treatment-related AE, grade ≥3","phase Ib, CRC n = 14",0 n (%)
same,Number of patients with treatment-related AEs,"phase Ib, CRC n = 14",12 (85.7) n (%)
same,"Thrombocytopenia, treatment-related AE, any grade","phase Ib, CRC n = 14",5 (35.7) n (%)
same,"Thrombocytopenia, treatment-related AE, grade ≥3","phase Ib, CRC n = 14",3 (21.4) n (%)
same,"Vomiting, treatment-related AE, any grade","phase Ib, CRC n = 14",3 (21.4) n (%)
same,"Vomiting, treatment-related AE, grade ≥3","phase Ib, CRC n = 14",2 (14.3) n (%)
same,"Weight decrease, treatment-related AE, any grade","phase Ib, CRC n = 14",1 (7.1) n (%)
same,"Weight decrease, treatment-related AE, grade ≥3","phase Ib, CRC n = 14",0 n (%)
same,"ALT increase, treatment-related AE, any grade",[6],5 (11.9) n (%)
same,"ALT increase, treatment-related AE, grade ≥3",[6],0 n (%)
same,"Anemia, treatment-related AE, any grade",[6],11 (26.2) n (%)
same,"Anemia, treatment-related AE, grade ≥3",[6],6 (14.3) n (%)
same,"Decreased appetite, treatment-related AE, any grade",[6],1 (2.4) n (%)
same,"Decreased appetite, treatment-related AE, grade ≥3",[6],0 n (%)
same,"Decreased platelet count, treatment-related AE, any grade",[6],15 (35.7) n (%)
same,"Decreased platelet count, treatment-related AE, grade ≥3",[6],7 (16.7) n (%)
same,"Diarrhea, treatment-related AE, any grade",[6],8 (19.0) n (%)
same,"Diarrhea, treatment-related AE, grade ≥3",[6],1 (2.4) n (%)
same,"Dysgeusia, treatment-related AE, any grade",[6],5 (11.9) n (%)
same,"Dysgeusia, treatment-related AE, grade ≥3",[6],0 n (%)
same,"Epistaxis, treatment-related AE, any grade",[6],1 (2.4) n (%)
same,"Epistaxis, treatment-related AE, grade ≥3",[6],0 n (%)
same,"Fatigue, treatment-related AE, any grade",[6],10 (23.8) n (%)
same,"Fatigue, treatment-related AE, grade ≥3",[6],4 (9.5) n (%)
same,"Nausea, treatment-related AE, any grade",[6],2 (4.8) n (%)
same,"Nausea, treatment-related AE, grade ≥3",[6],0 n (%)
same,Number of patients with treatment-related AEs,[6],32 (76.2) n (%)
same,"Thrombocytopenia, treatment-related AE, any grade",[6],10 (23.8) n (%)
same,"Thrombocytopenia, treatment-related AE, grade ≥3",[6],6 (14.3) n (%)
